Measured values taken from paper PMC3775947 (Clinical lymphoma, myeloma & leukemia, 2013).
Read-outs that look alike come from different tables or passages of the source.

Key:
[1] = system: elderly patients with newly diagnosed AML
[2] = system: elderly patients with newly diagnosed AML; test: AML response assessed by investigators; type: in vivo, human
[3] = system: elderly patients with newly diagnosed AML; test: Phase I dose escalation: dose-limiting toxicities and maximum tolerated dose; type: in vivo, human
[4] = system: patients with AML; conditions: cited from earlier work
[5] = Plasma pharmacokinetics of barasertib, barasertib-hQPA and LDAC; conditions: for Css, barasertib: geometric mean (CV%)
[6] = Total, barasertib 800-1200 mg + LDAC 400 mg, n=22
[7] = all patients, barasertib + LDAC, n=22
[8] = barasertib 800 mg + LDAC 400 mg, n=6
[9] = barasertib 1000 mg + LDAC 400 mg, n=13
[10] = barasertib 1200 mg + LDAC 400 mg, n=3
[11] = combination treatment barasertib + LDAC
[12] = overall, barasertib + LDAC, n=22

CCN(CCCOc1ccc2c(Nc3cc(CC(=O)Nc4cccc(F)c4)n[nH]3)ncnc2c1)CCOP(=O)(O)O [Barasertib]
Grade ≥3 febrile neutropenia, patients ([1]; MTD of barasertib 1000 mg + LDAC): 69%
Alopecia, AE (any cause; all grades) [1, 6]: 6 (27) n (%)
Anemia, grade ≥3 adverse event [1, 6]: 2 (9) n (%)
Any AE (any cause; all grades) [1, 6]: 22 (100) n (%)
Any grade ≥3 AE [1, 6]: 21 (96) n (%)
Confusional state, AE (any cause; all grades) [1, 6]: 5 (23) n (%)
Constipation, AE (any cause; all grades) [1, 6]: 6 (27) n (%)
Cough, AE (any cause; all grades) [1, 6]: 4 (18) n (%)
Decreased appetite, AE (any cause; all grades) [1, 6]: 4 (18) n (%)
Diarrhea, AE (any cause; all grades) [1, 6]: 10 (46) n (%)
Diarrhea, grade ≥3 adverse event [1, 6]: 2 (9) n (%)
Febrile neutropenia, AE (any cause; all grades) [1, 6]: 13 (59) n (%)
Febrile neutropenia, grade ≥3 adverse event [1, 6]: 13 (59) n (%)
Headache, AE (any cause; all grades) [1, 6]: 5 (23) n (%)
Hemorrhoids, AE (any cause; all grades) [1, 6]: 4 (18) n (%)
Hypertension, AE (any cause; all grades) [1, 6]: 4 (18) n (%)
Insomnia, AE (any cause; all grades) [1, 6]: 4 (18) n (%)
Musculoskeletal pain, AE (any cause; all grades) [1, 6]: 4 (18) n (%)
Nausea, AE (any cause; all grades) [1, 6]: 11 (50) n (%)
Neutropenia, AE (any cause; all grades) [1, 6]: 4 (18) n (%)
Neutropenia, grade ≥3 adverse event [1, 6]: 4 (18) n (%)
Oropharyngeal pain, AE (any cause; all grades) [1, 6]: 5 (23) n (%)
Peripheral edema, AE (any cause; all grades) [1, 6]: 9 (41) n (%)
Petechiae, AE (any cause; all grades) [1, 6]: 6 (27) n (%)
Pneumonia, AE (any cause; all grades) [1, 6]: 6 (27) n (%)
Pneumonia, grade ≥3 adverse event [1, 6]: 3 (14) n (%)
Pyrexia, AE (any cause; all grades) [1, 6]: 5 (23) n (%)
Rash, AE (any cause; all grades) [1, 6]: 4 (18) n (%)
Stomatitis, AE (any cause; all grades) [1, 6]: 9 (41) n (%)
Peripheral edema, patients [1, 7]: 41%
Stomatitis, patients [1, 7]: 41%
Alopecia, AE (any cause; all grades) [1, 8]: 2 n
Anemia, grade ≥3 adverse event [1, 8]: 2 n
Any AE (any cause; all grades) [1, 8]: 6 n
Any grade ≥3 AE [1, 8]: 6 n
Confusional state, AE (any cause; all grades) [1, 8]: 2 n
Constipation, AE (any cause; all grades) [1, 8]: 3 n
Cough, AE (any cause; all grades) [1, 8]: 1 n
Decreased appetite, AE (any cause; all grades) [1, 8]: 2 n
Diarrhea, AE (any cause; all grades) [1, 8]: 5 n
Diarrhea, grade ≥3 adverse event [1, 8]: 1 n
Febrile neutropenia, AE (any cause; all grades) [1, 8]: 4 n
Febrile neutropenia, grade ≥3 adverse event [1, 8]: 4 n
Headache, AE (any cause; all grades) [1, 8]: 3 n
Hemorrhoids, AE (any cause; all grades) [1, 8]: 1 n
Hypertension, AE (any cause; all grades) [1, 8]: 0 n
Insomnia, AE (any cause; all grades) [1, 8]: 0 n
Musculoskeletal pain, AE (any cause; all grades) [1, 8]: 2 n
Nausea, AE (any cause; all grades) [1, 8]: 4 n
Neutropenia, AE (any cause; all grades) [1, 8]: 1 n
Neutropenia, grade ≥3 adverse event [1, 8]: 1 n
Oropharyngeal pain, AE (any cause; all grades) [1, 8]: 1 n
Peripheral edema, AE (any cause; all grades) [1, 8]: 2 n
Petechiae, AE (any cause; all grades) [1, 8]: 3 n
Pneumonia, AE (any cause; all grades) [1, 8]: 3 n
Pneumonia, grade ≥3 adverse event [1, 8]: 0 n
Pyrexia, AE (any cause; all grades) [1, 8]: 3 n
Rash, AE (any cause; all grades) [1, 8]: 2 n
Stomatitis, AE (any cause; all grades) [1, 8]: 3 n
Stomatitis, grade ≥3 adverse event [1, 8]: 0 n
Thrombocytopenia, grade ≥3 adverse event (grade 4) [1, 8]: 1 n
Vomiting, AE (any cause; all grades) [1, 8]: 3 n
Alopecia, AE (any cause; all grades) [1, 9]: 4 n
Anemia, grade ≥3 adverse event [1, 9]: 0 n
Any AE (any cause; all grades) [1, 9]: 13 n
Any grade ≥3 AE [1, 9]: 12 n
Confusional state, AE (any cause; all grades) [1, 9]: 3 n
Constipation, AE (any cause; all grades) [1, 9]: 3 n
Cough, AE (any cause; all grades) [1, 9]: 3 n
Decreased appetite, AE (any cause; all grades) [1, 9]: 1 n
Diarrhea, AE (any cause; all grades) [1, 9]: 5 n
Diarrhea, grade ≥3 adverse event [1, 9]: 1 n
Febrile neutropenia, AE (any cause; all grades) [1, 9]: 9 n
Febrile neutropenia, grade ≥3 adverse event [1, 9]: 9 n
Headache, AE (any cause; all grades) [1, 9]: 2 n
Hemorrhoids, AE (any cause; all grades) [1, 9]: 3 n
Hypertension, AE (any cause; all grades) [1, 9]: 3 n
Insomnia, AE (any cause; all grades) [1, 9]: 3 n
Musculoskeletal pain, AE (any cause; all grades) [1, 9]: 2 n
Nausea, AE (any cause; all grades) [1, 9]: 6 n
Neutropenia, AE (any cause; all grades) [1, 9]: 2 n
Neutropenia, grade ≥3 adverse event [1, 9]: 2 n
Oropharyngeal pain, AE (any cause; all grades) [1, 9]: 4 n
Peripheral edema, AE (any cause; all grades) [1, 9]: 7 n
Petechiae, AE (any cause; all grades) [1, 9]: 2 n
Pneumonia, AE (any cause; all grades) [1, 9]: 3 n
Pneumonia, grade ≥3 adverse event [1, 9]: 3 n
Pyrexia, AE (any cause; all grades) [1, 9]: 2 n
Rash, AE (any cause; all grades) [1, 9]: 2 n
Stomatitis, AE (any cause; all grades) [1, 9]: 4 n
Stomatitis, grade ≥3 adverse event [1, 9]: 2 n
Thrombocytopenia, grade ≥3 adverse event (grade 4) [1, 9]: 1 n
Vomiting, AE (any cause; all grades) [1, 9]: 2 n
Alopecia, AE (any cause; all grades) [1, 10]: 0 n
Anemia, grade ≥3 adverse event [1, 10]: 0 n
Any AE (any cause; all grades) [1, 10]: 3 n
Any grade ≥3 AE [1, 10]: 3 n
Confusional state, AE (any cause; all grades) [1, 10]: 0 n
Constipation, AE (any cause; all grades) [1, 10]: 0 n
Cough, AE (any cause; all grades) [1, 10]: 0 n
Decreased appetite, AE (any cause; all grades) [1, 10]: 1 n
Diarrhea, AE (any cause; all grades) [1, 10]: 0 n
Diarrhea, grade ≥3 adverse event [1, 10]: 0 n
Febrile neutropenia, AE (any cause; all grades) [1, 10]: 0 n
Febrile neutropenia, grade ≥3 adverse event [1, 10]: 0 n
Headache, AE (any cause; all grades) [1, 10]: 0 n
Hemorrhoids, AE (any cause; all grades) [1, 10]: 0 n
Hypertension, AE (any cause; all grades) [1, 10]: 1 n
Insomnia, AE (any cause; all grades) [1, 10]: 1 n
Musculoskeletal pain, AE (any cause; all grades) [1, 10]: 0 n
Nausea, AE (any cause; all grades) [1, 10]: 1 n
Neutropenia, AE (any cause; all grades) [1, 10]: 1 n
Neutropenia, grade ≥3 adverse event [1, 10]: 1 n
Oropharyngeal pain, AE (any cause; all grades) [1, 10]: 0 n
Peripheral edema, AE (any cause; all grades) [1, 10]: 0 n
Petechiae, AE (any cause; all grades) [1, 10]: 1 n
Pneumonia, AE (any cause; all grades) [1, 10]: 0 n
Pneumonia, grade ≥3 adverse event [1, 10]: 0 n
Pyrexia, AE (any cause; all grades) [1, 10]: 0 n
Rash, AE (any cause; all grades) [1, 10]: 0 n
Stomatitis, AE (any cause; all grades) [1, 10]: 2 n
Stomatitis, grade ≥3 adverse event [1, 10]: 2 n
Thrombocytopenia, grade ≥3 adverse event (grade 4) [1, 10]: 0 n
Vomiting, AE (any cause; all grades) [1, 10]: 1 n
ECG assessment [1, 11]: no clinically significant changes
Vital signs, hematology, or clinical chemistry parameters [1, 11]: no clinically relevant adverse changes
Dose interruptions due to AEs [1, 12]: Three
Grade ≥3 febrile neutropenia, patients [1, 12]: 59%
SAE febrile neutropenia [1, 12]: 36%
SAE stomatitis [1, 12]: 9%
SAEs considered related to study treatment [1, 12]: Five
Serious AEs (SAEs), patients [1, 12]: 68%
Overall response rate (International Working Group criteria; by investigator opinion) ([2]; all patients, barasertib + LDAC, n=10/22): 45%
Complete response with incomplete recovery of neutrophils and/or platelets, patients [2, 7]: 9%
Partial response, patients [2, 7]: 9%
Best clinical response: CR (complete response) [2, 8]: 2 n
Best clinical response: CRi (complete response with incomplete recovery of neutrophils and/or platelets) [2, 8]: 0 n
Best clinical response: ORR (overall response rate) [2, 8]: 3 (50) n (%)
Best clinical response: PR (partial response) [2, 8]: 1 n
Best clinical response: CR (complete response) [2, 9]: 3 n
Best clinical response: CRi (complete response with incomplete recovery of neutrophils and/or platelets) [2, 9]: 2 n
Best clinical response: ORR (overall response rate) [2, 9]: 6 (46) n (%)
Best clinical response: PR (partial response) [2, 9]: 1 n
Response rate ([2]; barasertib 1000 mg cohort + LDAC, 6/13 patients): 46%
Best clinical response: CR (complete response) [2, 10]: 1 n
Best clinical response: CRi (complete response with incomplete recovery of neutrophils and/or platelets) [2, 10]: 0 n
Best clinical response: ORR (overall response rate) [2, 10]: 1 (33) n (%)
Best clinical response: PR (partial response) [2, 10]: 0 n
Complete response, patients with adverse cytogenetic risk ([2]; barasertib + LDAC, n=7): 14%
Complete responses (CR or CRi), patients with intermediate risk cytogenetics ([2]; barasertib + LDAC, n=9): 44%
Tolerability of dose level ([3]; barasertib 1200 mg + LDAC): non-tolerated
DLTs reported ([3]; in vivo): No DLTs
Incidence of febrile neutropenia ([4]; barasertib monotherapy Phase I study): 47%
Lowest dose associated with clinical activity ([4]; barasertib): 400 mg
Steady-state plasma concentrations observed from, after start of infusion ([5]; 7-day continuous iv infusion of barasertib, Day 1, maintained until EOI): 24 h
Time following EOI at which levels were generally undetectable ([5]; plasma, LLOQ 0.25 ng/mL): 2 h
Css, barasertib ([5]; plasma, barasertib 800 mg + LDAC 400 mg, n=6): 46.7 (55.8) ng/mL
Css, barasertib ([5]; plasma, barasertib 1000 mg + LDAC 400 mg, n=13): 44.4 (55.5) ng/mL
Css, barasertib ([5]; plasma, barasertib 1200 mg + LDAC 400 mg, n=3): 64.9 (67.4) ng/mL
